Measurements as given in ChEMBL document CHEMBL1201862, “PubChem BioAssay data set” (2004).
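In this assay, cells in 96-well plates receive the compound at five concentrations for 48 hours. Endpoints are linearly interpolated between the surrounding concentrations. Abbreviation: GI50, concentration required for 50% inhibition of growth.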 Active and inactive are the calls of the source. No stated cut-off is given here; in the data, active = GI50 up to about 1.1 µM and inactive = higher.

Tests used:
Test in all cases: NCI tumour cell line growth inhibition, 48 h
786-0 = tested on: 786-0
A498 = tested on: A498
A549 = tested on: A549
ACHN = tested on: ACHN
BT-549 = tested on: BT-549
CAKI-1 = tested on: CAKI-1
CCRF-CEM = tested on: CCRF-CEM
COLO 205 = tested on: COLO 205
DU-145 = tested on: DU-145
EKVX = tested on: EKVX
HCC 2998 = tested on: HCC 2998
HCT-116 = tested on: HCT-116
HCT-15 = tested on: HCT-15
HL-60 = tested on: HL-60
HOP-62 = tested on: HOP-62
HOP-92 = tested on: HOP-92
HT-29 = tested on: HT-29
Hs-578T = tested on: Hs-578T
IGROV-1 = tested on: IGROV-1
K562 = tested on: K562
KM12 = tested on: KM12
LOX IMVI = tested on: LOX IMVI
M14 = tested on: M14
MCF7 = tested on: MCF7
MDA-MB-231 = tested on: MDA-MB-231
MDA-MB-435 = tested on: MDA-MB-435
MDA-N = tested on: MDA-N
MOLT-4 = tested on: MOLT-4
Malme-3M = tested on: Malme-3M
NCI-H226 = tested on: NCI-H226
NCI-H23 = tested on: NCI-H23
NCI-H460 = tested on: NCI-H460
NCI-H522 = tested on: NCI-H522
NCI/ADR-RES = tested on: NCI/ADR-RES
OVCAR-3 = tested on: OVCAR-3
OVCAR-4 = tested on: OVCAR-4
OVCAR-5 = tested on: OVCAR-5
OVCAR-8 = tested on: OVCAR-8
PC-3 = tested on: PC-3
RPMI-8226 = tested on: RPMI-8226
RXF 393 = tested on: RXF 393
SF-268 = tested on: SF-268
SF-295 = tested on: SF-295
SF-539 = tested on: SF-539
SK-MEL-28 = tested on: SK-MEL-28
SK-MEL-2 = tested on: SK-MEL-2
SK-MEL-5 = tested on: SK-MEL-5
SK-OV-3 = tested on: SK-OV-3
SN12C = tested on: SN12C
SNB-19 = tested on: SNB-19
SNB-75 = tested on: SNB-75
SR = tested on: SR
SW-620 = tested on: SW-620
TK-10 = tested on: TK-10
U-251 = tested on: U-251
UACC-257 = tested on: UACC-257
UACC-62 = tested on: UACC-62
UO-31 = tested on: UO-31
T47D = tested on: T47D

## C/C(=N/NC(=S)N(C)CCc1ccccn1)c1cnccn1
786-0
  GI50: 0.0977 µM (active)
A498
  GI50: 17.7 µM (inactive)
A549
  GI50: 0.078 µM (active)
ACHN
  GI50: < 0.01 µM (active)
BT-549
  GI50: 0.398 µM (active)
CAKI-1
  GI50: < 0.01 µM (active)
CCRF-CEM
  GI50: < 0.0358 µM (active)
COLO 205
  GI50: < 0.01 µM (active)
DU-145
  GI50: 0.378 µM (active)
EKVX
  GI50: < 0.01 µM (active)
HCC 2998
  GI50: 1.4 µM (inactive)
HCT-116
  GI50: < 0.01 µM (active)
HCT-15
  GI50: < 0.01 µM
HL-60
  GI50: < 0.01 µM (active)
HOP-62
  GI50: < 0.0246 µM (active)
HOP-92
  GI50: 3.35 µM (inactive)
HT-29
  GI50: < 0.01 µM (active)
Hs-578T
  GI50: 2.63 µM (inactive)
IGROV-1
  GI50: < 0.01 µM (active)
K562
  GI50: < 0.01 µM (active)
KM12
  GI50: 0.0406 µM (active)
LOX IMVI
  GI50: < 0.01 µM (active)
M14
  GI50: < 0.01 µM (active)
MCF7
  GI50: < 0.01 µM (active)
MDA-MB-231
  GI50: < 0.01 µM (active)
MDA-MB-435
  GI50: 0.867 µM (active)
MDA-N
  GI50: 0.828 µM (active)
MOLT-4
  GI50: < 0.01 µM (active)
Malme-3M
  GI50: < 0.01 µM (active)
NCI-H226
  GI50: < 0.01 µM (active)
NCI-H23
  GI50: < 0.01 µM (active)
NCI-H460
  GI50: 0.047 µM (active)
NCI-H522
  GI50: < 0.01 µM (active)
NCI/ADR-RES
  GI50: < 0.01 µM (active)
OVCAR-3
  GI50: < 0.01 µM (active)
OVCAR-4
  GI50: < 0.01 µM (active)
OVCAR-5
  GI50: 0.516 µM (active)
OVCAR-8
  GI50: < 0.01 µM (active)
PC-3
  GI50: < 0.01 µM (active)
RPMI-8226
  GI50: < 0.01 µM (active)
RXF 393
  GI50: 0.465 µM (active)
SF-268
  GI50: < 0.01 µM (active)
SF-295
  GI50: 0.177 µM (active)
SF-539
  GI50: 0.118 µM (active)
SK-MEL-28
  GI50: 0.933 µM (active)
SK-MEL-2
  GI50: 4.78 µM (inactive)
SK-MEL-5
  GI50: 0.0256 µM (active)
SK-OV-3
  GI50: 0.0235 µM (active)
SN12C
  GI50: < 0.01 µM (active)
SNB-19
  GI50: 0.437 µM (active)
SNB-75
  GI50: 4.19 µM (inactive)
SR
  GI50: 0.018 µM (active)
SW-620
  GI50: < 0.01 µM (active)
TK-10
  GI50: < 0.01 µM (active)
U-251
  GI50: < 0.01 µM (active)
UACC-257
  GI50: < 0.015 µM (active)
UACC-62
  GI50: 0.0986 µM (active)
UO-31
  GI50: < 0.0182 µM (active)

## CCCCc1c(N(C)C)c(OC(C)=O)c(-c2cn(C)c3ccccc23)oc1=O
786-0
  GI50: 34.8 µM (inactive)
A498
  GI50: 28.8 µM (inactive)
A549
  GI50: 24.3 µM (inactive)
ACHN
  GI50: 17.9 µM (inactive)
BT-549
  GI50: 28.3 µM (inactive)
CAKI-1
  GI50: 30.7 µM (inactive)
CCRF-CEM
  GI50: 33.4 µM (inactive)
COLO 205
  GI50: 19.1 µM (inactive)
DU-145
  GI50: 54.6 µM (inactive)
EKVX
  GI50: 26.1 µM (inactive)
HCT-116
  GI50: 17.3 µM (inactive)
HCT-15
  GI50: 19.4 µM
HL-60
  GI50: 17.7 µM (inactive)
HOP-62
  GI50: 19.8 µM (inactive)
HOP-92
  GI50: < 0.01 µM (active)
HT-29
  GI50: 15.5 µM (inactive)
Hs-578T
  GI50: 43 µM (inactive)
KM12
  GI50: 14.2 µM (inactive)
M14
  GI50: 16.8 µM (inactive)
MCF7
  GI50: 13.1 µM (inactive)
MDA-MB-435
  GI50: 19.1 µM (inactive)
MDA-N
  GI50: 18.1 µM (inactive)
MOLT-4
  GI50: 47.9 µM (inactive)
Malme-3M
  GI50: 24.8 µM (inactive)
NCI-H226
  GI50: 8.71 µM (inactive)
NCI-H23
  GI50: 22.5 µM (inactive)
NCI-H460
  GI50: 27 µM (inactive)
NCI-H522
  GI50: 20.9 µM (inactive)
NCI/ADR-RES
  GI50: 20.3 µM (inactive)
OVCAR-3
  GI50: 25.9 µM (inactive)
OVCAR-4
  GI50: 33.7 µM (inactive)
OVCAR-5
  GI50: 31.6 µM (inactive)
PC-3
  GI50: 18.6 µM (inactive)
RXF 393
  GI50: 41 µM (inactive)
SF-268
  GI50: 29.3 µM (inactive)
SF-295
  GI50: 25.5 µM (inactive)
SF-539
  GI50: 22.3 µM (inactive)
SK-MEL-28
  GI50: 21.7 µM (inactive)
SK-MEL-2
  GI50: 18.7 µM (inactive)
SK-MEL-5
  GI50: 13.8 µM (inactive)
SK-OV-3
  GI50: 32.4 µM (inactive)
SN12C
  GI50: 24.5 µM (inactive)
SNB-19
  GI50: 28.7 µM (inactive)
SNB-75
  GI50: 25.1 µM (inactive)
SR
  GI50: > 100 µM (inactive)
SW-620
  GI50: 23.6 µM (inactive)
T47D
  GI50: 29.6 µM (inactive)
TK-10
  GI50: 40 µM (inactive)
U-251
  GI50: 22 µM (inactive)
UACC-257
  GI50: 22.5 µM (inactive)
UACC-62
  GI50: 14.1 µM (inactive)
UO-31
  GI50: 20.8 µM (inactive)
